# Measurements published in patent publication US9163018B2, “Method of treatment of age-related macular degeneration (AMD)” (Prana Biotechnology Limited, priority 2006, dated 2015).
# Columns and labels:
# [1] = Toxicity, visual observations in mice; conditions: 30 mg/kg; duration and visual observations
# [2] = tested on: primary cortical neuronal cultured cells; experiment: Test compound cytotoxicity, MTS assay, primary cortical neuronal cultures; assay type: cell-based, mouse
# Method in brief: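 Primary cortical neurons were cultured five days in Neurobasal/B27, then exposed on day six to compounds (from 2.5 mM DMSO stocks) in medium minus antioxidants, in triplicate for 4 days at 37° C. Viability was measured by MTS, 2 h at 37° C, absorbance at 560 nm.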
# [3] = tested on: Abeta in extract of post-mortem human AD brain tissue; experiment: BAS: human brain amyloid solubilization assay; assay type: biochemical; conditions: max effect across the concentration range, referenced to baseline PBS
# Method in brief: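 Plaque-bearing post-mortem AD cortex homogenised in ice-cold PBS pH 7.4; soluble Aβ in 100,000×g supernatant, insoluble Aβ from resuspended pellet. Fractions run on Tris-Tricine SDS-PAGE, immunoblotted with W02, densitometry against synthetic Aβ40 standards.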
# [4] = tested on: M17 human neuroblastoma cells; experiment: Cytotoxicity, M17 human neuroblastoma cells; assay type: cell-based
# Procedure: Assay 3. MTS Assay for Cell Viability
# Cell viability is determined using the MTS assay. Culture medium is replaced with fresh neurobasal medium plus B27 supplements minus antioxidants. 1/10th volume MTS solution (Cell Titre 96 Aqueous One, Promega Corporation) and incubated at 37° C., 2 hrs. 200 microliter aliquots are measured with a spectrophotometer at 560 nm.
structure (smiles),measurement,setting,value
CN(C)Cc1ccc2c(Cl)cc(Cl)c(O)c2n1.Cl [PB 1033],Toxicity at 30 mg/kg,[1],"10 days, none"
same,Cytotox (% viable) Neuronal cells at 1 μM,[2]; 1 μM test compound,84%
same,Cytotox (% viable) Neuronal cells at 10 μM,[2]; 10 μM test compound,72%
same,BAS max effect,[3],470%
same,Cytotox (% viable) M17 cells at 1 μM,[4]; 1 μM test compound,94%
same,Cytotox (% viable) M17 cells at 10 μM,[4]; 10 μM test compound,54.3%
